Experimental data from paper PMC8640046, “Fluorinated rhamnosides inhibit cellular fucosylation” (Nature Communications, 2021).

Target: T1, GMDS (GDP-mannose 4,6-dehydratase) (Homo sapiens, UniProt O60547)
T1 construct: recombinant human GMDS with a His-tag (Addgene plasmid # 39152)
T1 sequence (O60547 2-372): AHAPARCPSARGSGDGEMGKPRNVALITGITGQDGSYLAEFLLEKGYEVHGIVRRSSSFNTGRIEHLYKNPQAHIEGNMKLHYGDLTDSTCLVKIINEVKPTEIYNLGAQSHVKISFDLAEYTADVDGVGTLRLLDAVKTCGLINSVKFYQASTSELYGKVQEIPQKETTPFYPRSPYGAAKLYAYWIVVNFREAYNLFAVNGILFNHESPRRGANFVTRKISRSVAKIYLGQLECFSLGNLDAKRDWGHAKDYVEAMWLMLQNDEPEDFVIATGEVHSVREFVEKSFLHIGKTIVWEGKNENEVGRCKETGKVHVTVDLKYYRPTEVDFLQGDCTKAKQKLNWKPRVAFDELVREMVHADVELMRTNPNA
Test: LC-MS and 1H NMR assay of GDP-mannose conversion by recombinant GMDS ([…] enzyme, […] GDP-mannose)
Type: biochemical

IC50: 231 µM
Structure (SMILES): Nc1nc2c(ncn2[C@@H]2O[C@H](COP(=O)(O)OP(=O)(O)O[C@H]3O[C@H](C(F)F)[C@@H](O)[C@H](O)[C@@H]3O)[C@@H](O)[C@H]2O)c(=O)[nH]1 [compound 25, GDP-D-Rha6F2]
